Source: ChEMBL document CHEMBL1201862, “PubChem BioAssay data set” (2004)
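Method: 48-hour compound exposure of cells in 96-well plates, five concentrations, linear interpolation of endpoints. GI50: concentration for 50% inhibition of growth.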 The source made the active and inactive calls. Rule as the data show it: active = GI50 up to about 1.1 µM and inactive = higher.

How the values were obtained:
Assay in all cases: growth of human tumour cells (NCI), 48 h
786-0 = test system: 786-0
BT-549 = test system: BT-549
COLO 205 = test system: COLO 205
HCC 2998 = test system: HCC 2998
HCT-116 = test system: HCT-116
HOP-62 = test system: HOP-62
Hs-578T = test system: Hs-578T
OVCAR-3 = test system: OVCAR-3
OVCAR-5 = test system: OVCAR-5
SF-268 = test system: SF-268
SF-539 = test system: SF-539
SK-MEL-2 = test system: SK-MEL-2
SK-MEL-5 = test system: SK-MEL-5
SR = test system: SR
SW-620 = test system: SW-620
TK-10 = test system: TK-10
U-251 = test system: U-251
UACC-257 = test system: UACC-257
UO-31 = test system: UO-31
HOP-92 = test system: HOP-92

Structure (SMILES) | GI50 (786-0) | GI50 (BT-549) | GI50 (COLO 205) | GI50 (HCC 2998) | GI50 (HCT-116) | GI50 (HOP-62) | GI50 (Hs-578T) | GI50 (OVCAR-3) | GI50 (OVCAR-5) | GI50 (SF-268) | GI50 (SF-539) | GI50 (SK-MEL-2) | GI50 (SK-MEL-5) | GI50 (SR) | GI50 (SW-620) | GI50 (TK-10) | GI50 (U-251) | GI50 (UACC-257) | GI50 (UO-31) | GI50 (HOP-92)
Cc1ncc([N+](=O)[O-])n1CCNC(=O)CCn1ccnc1[N+](=O)[O-] | > 100 µM (inactive) | > 100 µM (inactive) | > 100 µM (inactive) | > 100 µM (inactive) | > 100 µM (inactive) | > 100 µM (inactive) | 66.8 µM (inactive) | > 100 µM (inactive) | > 100 µM (inactive) | > 100 µM (inactive) | > 100 µM (inactive) | > 100 µM (inactive) | > 100 µM (inactive) | > 100 µM (inactive) | > 100 µM (inactive) | > 100 µM (inactive) | > 100 µM (inactive) | > 100 µM (inactive) | > 100 µM (inactive) | –
COC(=O)c1ccc(NCc2c(O)ccc(O)c2Br)cc1Cl | 18.4 µM (inactive) | 11.2 µM (inactive) | 18.1 µM (inactive) | 19.1 µM (inactive) | 17.8 µM (inactive) | – | 25.1 µM (inactive) | 8.77 µM (inactive) | 14.6 µM (inactive) | 17.4 µM (inactive) | 14.2 µM (inactive) | 19.1 µM (inactive) | 18.5 µM (inactive) | – | 12.2 µM (inactive) | – | 16.7 µM (inactive) | 25.2 µM (inactive) | 15.8 µM (inactive) | 14.9 µM (inactive)
CN(C)/N=C/c1cn(C)c(=O)n(C)c1=O | > 100 µM (inactive) | > 100 µM (inactive) | > 100 µM (inactive) | > 100 µM (inactive) | > 100 µM (inactive) | > 100 µM (inactive) | > 100 µM (inactive) | > 100 µM (inactive) | > 100 µM (inactive) | > 100 µM (inactive) | > 100 µM (inactive) | > 100 µM (inactive) | > 100 µM (inactive) | – | > 100 µM (inactive) | > 100 µM (inactive) | > 100 µM (inactive) | > 100 µM (inactive) | > 100 µM (inactive) | > 100 µM (inactive)
CC(C)CCCC(C)[C@H]1CC[C@H]2N/C(=N/Cc3ccccc3)CCC[C@]12C (stereo partly drawn) | 2 µM (inactive) | 2.72 µM (inactive) | 1.42 µM (inactive) | – | 2.6 µM (inactive) | 2.46 µM (inactive) | 3.37 µM (inactive) | 2.07 µM (inactive) | – | 2.2 µM (inactive) | 1.83 µM (inactive) | 1.97 µM (inactive) | 1.58 µM (inactive) | 2.72 µM (inactive) | 1.91 µM (inactive) | 2.08 µM (inactive) | 1.78 µM (inactive) | 2.42 µM (inactive) | 2.59 µM (inactive) | 2.09 µM (inactive)
C=C(Nc1nc2ccc(C)cc2s1)C(=O)C(CC)C(=O)C(CC)CC1C(=O)NC(=O)NC1=O (stereo not drawn) | > 100 µM (inactive) | > 100 µM (inactive) | > 100 µM (inactive) | > 100 µM (inactive) | > 100 µM (inactive) | 32 µM (inactive) | > 100 µM (inactive) | > 100 µM (inactive) | > 100 µM (inactive) | > 100 µM (inactive) | > 100 µM (inactive) | > 100 µM (inactive) | > 100 µM (inactive) | – | > 100 µM (inactive) | > 100 µM (inactive) | > 100 µM (inactive) | > 100 µM (inactive) | > 100 µM (inactive) | > 100 µM (inactive)
Cc1nn(C(=O)Cc2ccccc2)c2c1C(c1ccc(N(C)C)cc1)SC(=N)N2 (stereo not drawn) | > 100 µM (inactive) | 51.5 µM (inactive) | > 100 µM (inactive) | > 100 µM (inactive) | > 100 µM (inactive) | 38.3 µM (inactive) | 24.5 µM (inactive) | – | – | > 100 µM (inactive) | 46.1 µM (inactive) | – | > 100 µM (inactive) | > 100 µM (inactive) | > 100 µM (inactive) | 76.6 µM (inactive) | – | > 100 µM (inactive) | > 100 µM (inactive) | –
CCCCCCCCCCCCCCCC(=O)OC1C(O)C(O)C(O)C(O)C12CO2 (stereo not drawn) | 18.6 µM (inactive) | 24.2 µM (inactive) | 36.3 µM (inactive) | 71.8 µM (inactive) | 24.3 µM (inactive) | > 100 µM (inactive) | 31.4 µM (inactive) | 24.6 µM (inactive) | 56 µM (inactive) | 34 µM (inactive) | 25.8 µM (inactive) | 37.3 µM (inactive) | > 100 µM (inactive) | – | 14.7 µM (inactive) | > 100 µM (inactive) | 17.5 µM (inactive) | > 100 µM (inactive) | 68.4 µM (inactive) | 14.3 µM (inactive)
Cc1cc(=O)nc(S(=O)(=O)NC(=S)Nc2ccc(Br)cc2)[nH]1 | > 100 µM (inactive) | > 100 µM (inactive) | > 100 µM (inactive) | > 100 µM (inactive) | – | > 100 µM (inactive) | > 100 µM (inactive) | > 100 µM (inactive) | > 100 µM (inactive) | > 100 µM (inactive) | > 100 µM (inactive) | > 100 µM (inactive) | > 100 µM (inactive) | – | > 100 µM (inactive) | > 100 µM (inactive) | > 100 µM (inactive) | > 100 µM (inactive) | > 100 µM (inactive) | 21 µM (inactive)
O=C(/C(=N\Nc1ccc([N+](=O)[O-])cc1[N+](=O)[O-])NC12CC3CC(CC(C3)C1)C2)C(Br)C(=O)c1ccccc1 (stereo not drawn) | 3.21 µM (inactive) | 4.44 µM (inactive) | 2.18 µM (inactive) | 3.98 µM (inactive) | 3.05 µM (inactive) | 2.74 µM (inactive) | 4.67 µM (inactive) | 2.54 µM (inactive) | 5.4 µM (inactive) | 5.05 µM (inactive) | 3.31 µM (inactive) | 2.12 µM (inactive) | 1.08 µM (active) | – | 0.766 µM (active) | 5.66 µM (inactive) | 2.85 µM (inactive) | 1.88 µM (inactive) | 6.12 µM (inactive) | 2.79 µM (inactive)
O=[N+]([O-])c1cc(Cl)ccc1S(=O)(=O)c1ccccc1 | > 100 µM (inactive) | 60.7 µM (inactive) | 70 µM (inactive) | > 100 µM (inactive) | 35.5 µM (inactive) | 39.7 µM (inactive) | 26.7 µM (inactive) | > 100 µM (inactive) | > 100 µM (inactive) | 83.6 µM (inactive) | > 100 µM (inactive) | 17.3 µM (inactive) | 49.2 µM (inactive) | – | > 100 µM (inactive) | > 100 µM (inactive) | > 100 µM (inactive) | 34 µM (inactive) | > 100 µM (inactive) | 82 µM (inactive)
CN/N=C(/C=C/c1ccccc1)C(C)C | > 100 µM (inactive) | > 100 µM (inactive) | > 100 µM (inactive) | > 100 µM (inactive) | > 100 µM (inactive) | > 100 µM (inactive) | > 100 µM (inactive) | > 100 µM (inactive) | > 100 µM (inactive) | > 100 µM (inactive) | > 100 µM (inactive) | > 100 µM (inactive) | > 100 µM (inactive) | > 100 µM (inactive) | > 100 µM (inactive) | > 100 µM (inactive) | > 100 µM (inactive) | > 100 µM (inactive) | > 100 µM (inactive) | –
Nc1cccc(OCC2CCCN3CCCCC23)c1 (stereo not drawn) | 15.6 µM (inactive) | 17.1 µM (inactive) | 19.5 µM (inactive) | 13.7 µM (inactive) | 16.3 µM (inactive) | 16.2 µM (inactive) | 16.7 µM (inactive) | 16.9 µM (inactive) | 17.7 µM (inactive) | 20.1 µM (inactive) | 18.3 µM (inactive) | 20.1 µM (inactive) | 18.9 µM (inactive) | – | 21.3 µM (inactive) | 17.4 µM (inactive) | 24.4 µM (inactive) | 19 µM (inactive) | 27.2 µM (inactive) | 28.5 µM (inactive)
Cc1nc2c(n1CCCl)C(=O)c1ccccc1C2=O | 52.2 µM (inactive) | 20.1 µM (inactive) | 14 µM (inactive) | 21.7 µM (inactive) | 16.1 µM (inactive) | 19.5 µM (inactive) | 20.1 µM (inactive) | 25.4 µM (inactive) | 19 µM (inactive) | 22 µM (inactive) | 31.4 µM (inactive) | – | > 10 µM (inactive) | 28.8 µM (inactive) | 23 µM (inactive) | 26.7 µM (inactive) | 12.6 µM (inactive) | 14.1 µM (inactive) | – | 29.2 µM (inactive)
Cc1nc(C)c(N2CCN(S(N)(=O)=O)CC2)c(O)n1 | > 100 µM (inactive) | > 100 µM (inactive) | > 100 µM (inactive) | > 100 µM (inactive) | > 100 µM (inactive) | > 100 µM (inactive) | > 100 µM (inactive) | > 100 µM (inactive) | – | > 100 µM (inactive) | > 100 µM (inactive) | – | > 100 µM (inactive) | > 100 µM (inactive) | > 100 µM (inactive) | > 100 µM (inactive) | > 100 µM (inactive) | > 100 µM (inactive) | > 100 µM (inactive) | > 100 µM (inactive)
CN(C)CCOC(=O)c1ccc(N)cc1 | 44.8 µM (inactive) | 51.1 µM (inactive) | 67.3 µM (inactive) | 16 µM (inactive) | 54.7 µM (inactive) | > 100 µM (inactive) | 32.4 µM (inactive) | 45.2 µM (inactive) | 29.6 µM (inactive) | 41.6 µM (inactive) | – | – | 25.6 µM (inactive) | – | 64.4 µM (inactive) | 44.4 µM (inactive) | 32.1 µM (inactive) | 19.4 µM (inactive) | 33.8 µM (inactive) | 12.6 µM (inactive)
